Data as given in PMC5442318, “Hundreds of dual-stage antimalarial molecules discovered by a functional gametocyte screen” (Nature Communications, 2017).
Where two headings read alike, the source gives them in different places.

Columns and labels:
[1] = test system: P. falciparum stage V female gametocytes; assay: P. falciparum female gametocyte activation assay (Pf FGAA), 24 h or 48 h preincubation, Pfs25 expression readout; type: cell-based, Plasmodium falciparum NF54; conditions: for Pf FGAA classification: SLOW / FAST / GAMETE from activity at 48h, 24h, 0h incubation
Method in brief: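 Female activation, triggered by xanthurenic acid and cooling, was scored by imaging Cy3-labelled anti-Pfs25 female gametes after 24 h at 26 °C. Beforehand, purified NF54 stage V gametocytes had been incubated with compound for either 24 h or 48 h (37 °C, 3% O2). Values are pIC50 from full-curve regression.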

[2] = test system: P. falciparum female gametes; assay: Pf FGAA with compounds added 30 min after triggering gametocyte activation (gamete-targeting); type: cell-based, Plasmodium falciparum NF54; conditions: 0h incubation time
[3] = test system: P. falciparum stages IV–V gametocytes; assay: Gametocytocidal ATP-depletion assay (gametocyte ATP bioluminescence); type: cell-based, Plasmodium falciparum; conditions: for inhibition at 2 µM: Plasmodium falciparum, mean
Method in brief: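 Read-out is luciferase luminescence of parasite ATP (BacTiter-Glo), standing in for viability. Double-purified mature stage IV–V gametocytes, 12,500 per well, were exposed 48 h at 37 °C in low-O2 gas; screening concentration 2 μM.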

HepG2 cells = assay: HepG2 cytotoxicity assay; type: cell-based; conditions: for Selectivity ratio: HepG2 TOX50 versus Pf FGAA IC50
Method in brief: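 Cell viability is measured by CellTiter-Glo luminescence. Signal is developed at room temperature and read 10 min after adding the reagent, with plates and reagent first equilibrated for 30 min.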

[4] = test system: P. falciparum asexual blood stages; conditions: ref 1 (Gamo, F. J. et al., Nature 465, 305-310, 2010), cited from earlier work; for IC50: TCAMS asexual blood stage data, read-out: Pf Asexual blood stages XC50; for Pf Asexual stages XC50: TCAMS data
[5] = 24h incubation time, read-out: Pf FGAA IC50 (µM) 24h
[6] = P. falciparum female gametocytes, mean, read-out: Gametocytes mean Pf FGAA IC50
[7] = Plasmodium falciparum, 24h incubation time, read-out: Pf FGAA IC50 (µM) 24h
[8] = Plasmodium falciparum, P. falciparum female gametocytes, mean, read-out: Gametocytes mean Pf FGAA IC50

Compound	IC50 [1, 5] [µM]	IC50 [1, 6] [µM]	Pf FGAA classification [1]	IC50 [2] [µM]	Gametocytes mean ATP inhibition at 2µM [3] [%]	HepG2 cells mean TOX50 (HepG2 cells; HepG2 cells, mean) [µM]	IC50 [4] [nM]	Pf Asexual stages XC50 [4] [nM]	IC50 [1, 7] [µM]	IC50 [1, 8] [µM]	IC50 ([2]; Plasmodium falciparum) [µM]	inhibition at 2 µM [3] [%]	Selectivity ratio (HepG2 cells)	HepG2 cells TOX50 (HepG2 cells; HepG2 cells) [µM]	HepG2 cells mean TOX50 (HepG2 cells; human, 48 h) [µM]
CCc1cc2c(Sc3nnc(N)s3)ncnc2s1 [TCMDC-123993]	0.77	0.73	FAST	> 20	23.86	32.30	660	660							
Cc1ccc(Cl)c2sc(N3CCN(C(=O)c4ccc([N+](=O)[O-])o4)CC3)nc12 [TCMDC-124311]	1.5	1.44	FAST	> 20	-39.73	25.79	320	320							
Cc1ccc(C)c2sc(N3CCN(C(=O)c4ccc([N+](=O)[O-])o4)CC3)nc12 [TCMDC-124315]	2.82	1.12	SLOW	> 20	3.06	37.65	820	820							
O=C(c1ccc([N+](=O)[O-])o1)N1CCN(c2nc3c(Cl)cccc3s2)CC1 [TCMDC-124316]			FAST			41.96	980	980	1.38	1.1	> 20	0.49	38.14		
O=C(Nc1ccc([N+](=O)[O-])cc1)Nc1cc(OCC(F)(F)F)cc(OCC(F)(F)F)c1 [TCMDC-124533]			SLOW			6.24	470	470	2.32	1.16	5.64	-45.2	5.40		
c1ccn2c(Sc3ncnc4sccc34)ncc2c1 [TCMDC-124602]	> 20	0.24	SLOW	14.4	12.16	>100	660	660						>100	
Clc1cc(Br)ccc1-c1ccc(CNCC2CCNCC2)o1 [TCMDC-124617]			SLOW			4.37	1510	1510	> 20	0.72	> 20	-8.62	6.08		
CN1CCC(N2CCC(Oc3cccc(C(=O)NCCCC4CCCC4)c3)CC2)CC1 [TCMDC-124677]			SLOW			4.90	840	230	3.87	1.47	> 20	-0.79	3.34		
Cc1ccc2c(c1)c(C1CCN(C(=O)c3ccc([N+](=O)[O-])o3)CC1)cn2C [TCMDC-124787]	0.88	2.12	FAST	> 20	-6.61	28.85	750	750							
C=CCc1cccc(CN2CCC(c3cc(O)nc(-c4ccccn4)n3)CC2)c1O [TCMDC-124851]			FAST			11.49	1100	1000	0.71	1.74	2.42	17.9	6.59		
CCCc1cc(=O)[nH]c(-n2nc(C)cc2NC(=O)CC(c2ccccc2)c2ccccc2)n1 [TCMDC-124940]	0.41	1.3	FAST	> 20	0.055	>100	620	510						>100	
COc1ccc(NC(=O)Nc2ccc(Nc3nc(C)cc(N4CCCC4)n3)cc2)cc1 [TCMDC-124958]			FAST			11.89	140	140	2.16	1.08	10.1	-9.01	11.05		
O=C(c1ccc([N+](=O)[O-])o1)N1CCN(c2nc3c(F)cc(F)cc3s2)CC1 [TCMDC-125149]	1.25	1.31	FAST	> 20	5.52	>100	970	970						>100	
CNCCCNCc1ccc(-c2ccc(F)c(Cl)c2)o1.Cl [TCMDC-125237]	1.57	1.87	FAST	> 20	-1.51	10.60	750	750							
Cc1ccc(-n2c(Sc3ncnc4sccc34)nnc2N2CCCC2)cc1 [TCMDC-125247]	> 20	0.49	SLOW	> 20	22.13	89.13	260	260							
O=C(Nc1nc(-c2ccccn2)cs1)c1ccc(S(=O)(=O)N2CCc3ccccc32)cc1 [TCMDC-125432]	0.7	1.07	FAST	> 20	-8.57	29.22	830	830							
CCN(CCNS(C)(=O)=O)c1ccc(N)c(C)c1.O.O=S(=O)(O)O [TCMDC-125836]	0.3	1.14	FAST	3.56	7.23	26.14	880	880							
C[C@H](Cc1ccc(OCCCCCCOc2ccc(C[C@@H](C)N[C@H](C)c3ccccc3)cc2)cc1)NC[C@H](O)c1cccc(Cl)c1.Cl [TCMDC-131564]	2.89	0.72	SLOW	> 20	38.50	4.28	240	240							
N#Cc1c(F)cc(N2CCC(NCC[C@H](N)Cc3ccc(F)c(F)c3)CC2)cc1F [TCMDC-132121]			SLOW				860	860	7.16	0.73	7.08	7.46	6.30		4.58
O=C(O)C(F)(F)F.O=S(=O)(NCCN1CCCC1)c1ccc(-c2cccc(CNC3Cc4ccccc4C3)c2)s1 [TCMDC-132217]	5.37	1.29	SLOW	> 20	18.03	5.50	750	750							
CN1CCC(NCc2cccc(-c3ccc(S(=O)(=O)NCc4ccccc4)c(F)c3)c2)CC1.O=C(O)C(F)(F)F [TCMDC-132219]	12.2	2.63	SLOW	> 20	-1.59	5.13	320	320							
Cc1cccc2nc(-c3ccc(-c4ccc(CNCc5ccc(CN)cc5)cc4)s3)[nH]c12.O=C(O)C(F)(F)F [TCMDC-132809]	1.17	0.47	FAST	5.14	36.48	14.79	440	440							
Cc1cccc2nc(-c3ccc(-c4ccc(CNCc5ccc(CN)cc5)cc4)cc3)[nH]c12.O=C(O)C(F)(F)F [TCMDC-132813]	0.21	2.16	FAST	4.35	13.49	18.09	720	720							
